Source: PubChem BioAssay (NCI)
Where “and” joins values, the source holds several entries; their conditions need not be identical. Equal values may be shown once.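 How tested: cells in 96-well plates exposed to compound for 48 hours at five concentrations. Abbreviation: GI50, concentration required for 50% inhibition of growth. TGI denotes the concentration required for complete inhibition of growth.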

Tests used:
Experiment in all cases: NCI tumour cell line growth inhibition, 48 h
SK-MEL-2 melanoma = system: SK-MEL-2 melanoma
SN12C renal = system: SN12C renal
SF-295 CNS = system: SF-295 CNS
NCI-H460 lung = system: NCI-H460 lung
COLO 205 colon = system: COLO 205 colon
M14 melanoma = system: M14 melanoma
SNB-75 CNS = system: SNB-75 CNS
NCI-H522 lung = system: NCI-H522 lung
EKVX NSCLC = system: EKVX NSCLC
SW-620 colon = system: SW-620 colon

Structure (SMILES) | GI50 (SK-MEL-2 melanoma) | TGI (SK-MEL-2 melanoma) | GI50 (SN12C renal) | TGI (SN12C renal) | GI50 (SF-295 CNS) | TGI (SF-295 CNS) | GI50 (NCI-H460 lung) | TGI (NCI-H460 lung) | GI50 (COLO 205 colon) | TGI (COLO 205 colon) | GI50 (M14 melanoma) | TGI (M14 melanoma) | GI50 (SNB-75 CNS) | TGI (SNB-75 CNS) | GI50 (NCI-H522 lung) | TGI (NCI-H522 lung) | GI50 (EKVX NSCLC) | TGI (EKVX NSCLC) | GI50 (SW-620 colon) | TGI (SW-620 colon)
COc1cccc2c1C(=O)c1c(O)c3c(c(O)c1C2=O)C[C@@](O)(C(=O)CO)C[C@@H]3OC1CC(OC(C)=O)C(OC(C)=O)C(C)O1 (stereo partly drawn) | 1.87 µM | 4.95 µM | 0.255 µM | 5.87 µM | 0.234 µM | 1.25 µM | < 0.0239 µM | 1.57 µM | 0.801 µM | 4.45 µM | 0.529 µM | 2.26 µM | 0.687 µM | 8.53 µM | 0.578 µM | 3.36 µM | 1.92 µM | 9.5 µM | 0.277 µM | 3.45 µM
S=c1nc[nH]c2nc[nH]c12 | > 100 µM and 26.2 µM | > 100 µM and 664 µM and > 750 µM |  | > 100 µM and 680 µM and > 750 µM | 1.76 µM and 12.3 µM | > 100 µM and 735 µM and > 750 µM | 4.74 µM | > 730 µM | 18.8 µM | > 100 µM and 546 µM and > 750 µM | 0.418 µM and 3.92 µM |  |  | > 100 µM and 402 µM and > 621 µM | 5.3 µM and 8.69 µM | > 100 µM and 302 µM and > 750 µM | > 100 µM and 353 µM | > 100 µM and 741 µM and > 750 µM | 3.97 µM and 15.1 µM | > 100 µM and 692 µM and > 750 µM
CN(C)CCN1C(=O)c2cccc3c(N)ccc(c23)C1=O | 11.6 µM | > 25 µM | 10 µM | > 25 µM | 10 µM | > 25 µM | 7.42 µM | 23.8 µM | 8.18 µM | > 25 µM | 11.3 µM | > 25 µM | > 25 µM | > 25 µM | 7.12 µM | > 25 µM | 14.2 µM | > 25 µM | 10.1 µM | > 25 µM
CCN1/C(=C/C=C/C=C/c2sc3ccccc3[n+]2CC)Sc2ccccc21 | 0.979 µM | 2.72 µM | 0.327 µM | 1.76 µM | 0.153 µM | 0.508 µM | 0.2 µM | 1.06 µM | 0.191 µM | 0.347 µM | 0.416 µM | 1.49 µM | 0.243 µM | 1.47 µM | 0.281 µM | 1.51 µM | 0.122 µM | 0.798 µM | 0.379 µM | 1.84 µM
O=C1c2ccc3c4c(ccc(c24)C(=O)N1CCCNCc1ccccc1)C(=O)N(CCCNCc1ccccc1)C3=O | 0.178 µM | 0.363 µM | 0.145 µM | 0.308 µM | 0.173 µM | 0.432 µM | 0.146 µM | 0.579 µM | 0.113 µM | 0.24 µM | 0.161 µM | 0.307 µM | 0.147 µM | 0.291 µM | 0.142 µM | 0.303 µM | 0.165 µM | 0.323 µM | 0.0758 µM | 0.326 µM
Cc1coc2c1CC1OC1(C)CCC1OC1(C)C2 (stereo not drawn) |  | > 100 µM |  | > 100 µM |  | > 100 µM |  | > 100 µM |  | > 100 µM |  | > 100 µM |  | > 100 µM |  | > 100 µM |  | > 100 µM |  | > 100 µM
Cc1cc(O)c(C2=NN(c3ccc(S(N)(=O)=O)cc3)C(c3ccccc3O)C2)cc1Cl (stereo not drawn) | 4.85 µM | 11.6 µM | 2.8 µM | 8.65 µM | 1.68 µM | 3.5 µM | 2.07 µM | 4.38 µM | 1.86 µM | 3.41 µM | 1.75 µM | 3.39 µM | 1.54 µM | 8.64 µM | 1.91 µM | 4.72 µM | 1.96 µM | 6.52 µM | 1.7 µM | 3.39 µM
O=c1c2cc(Br)ccc2nc(-c2ccccc2)n1NCC1(O)OCC(O)C(O)C1O (stereo not drawn) |  | > 100 µM |  | > 100 µM |  | > 100 µM |  | > 100 µM |  | > 100 µM |  | > 100 µM |  | > 100 µM |  | > 100 µM |  | > 100 µM |  | > 100 µM
Cc1c2cnccc2c(C)c2c1c1cc(C(=O)O)ccc1n2C | 1.38 µM | 4.03 µM | 0.772 µM | 10.2 µM | 1.16 µM | 6.65 µM | 0.874 µM | 8.46 µM | 0.594 µM | 4.02 µM | 1.3 µM | 3.74 µM | 1.1 µM | 2.53 µM | 0.943 µM | 3.9 µM | 1.53 µM | 5.74 µM | 0.49 µM | 6.7 µM
OC(COc1cccc2ccccc12)CN1CCN(c2ccc(Cl)cc2)CC1 (stereo not drawn) | 21.7 µM | 60.3 µM | 51 µM | > 100 µM | 11.4 µM | 36.9 µM | 15.7 µM | > 100 µM | > 100 µM | > 100 µM | 64.8 µM | > 100 µM | 9.76 µM | 27.1 µM | 15.7 µM | 43.5 µM | 21.3 µM | > 100 µM | 17.9 µM | > 100 µM
COc1cc(-c2nc3ccccc3[nH]2)ccc1OCC(=O)N=Nc1c(O)[nH]c2ccc(Cl)cc12 | 1.76 µM | 3.34 µM | 1.61 µM | 3.06 µM | 1.81 µM | 3.35 µM | 1.15 µM | 2.84 µM | 1.89 µM | 3.79 µM | 1.67 µM | 3.65 µM | 1.19 µM | 2.64 µM | 1.48 µM | 3.48 µM | 4.94 µM | > 100 µM | 0.748 µM | 2.42 µM
C=CCC(N[C@@H](CO)c1ccccc1)c1ccccn1 (stereo partly drawn) | > 100 µM | > 100 µM | 22.9 µM | > 100 µM | > 100 µM | > 100 µM |  |  | > 100 µM | > 100 µM | > 100 µM | > 100 µM | > 100 µM | > 100 µM | 25.8 µM | > 100 µM | 75 µM | > 100 µM | > 100 µM | > 100 µM
COc1cc([N+](=O)[O-])c(S(=O)(=O)O)cc1N |  | > 100 µM |  | > 100 µM |  |  |  | > 100 µM |  | > 100 µM |  | > 100 µM |  | > 100 µM |  | > 100 µM |  | > 100 µM |  | > 100 µM
CCOc1ccccc1NC(=O)C(=O)C(C(=O)c1ccc2ccccc2c1)C1OC(=O)c2ccccc21 (stereo not drawn) |  | 29.4 µM |  | 37.4 µM |  |  |  | 52.2 µM |  | 29.7 µM |  | 36.4 µM |  | 31 µM |  | 27.4 µM |  | 77.3 µM |  | 33.8 µM
